How the values were obtained:
MB-231 = tested on: MB-231; set-up: key to the marks not given beside the values
MB-468 = tested on: MB-468; set-up: key to the marks not given beside the values
MCF-7 = tested on: MCF-7; set-up: key to the marks not given beside the values
HT-29 = tested on: HT-29; set-up: key to the marks not given beside the values
NCI H460 = tested on: NCI H460; set-up: key to the marks not given beside the values
OVCAR = tested on: OVCAR; set-up: key to the marks not given beside the values
PC-3 = tested on: PC-3; set-up: key to the marks not given beside the values
[1] = Live/Dead cytotoxicity assay, hybridoma supernatant; settings: human

C[C@@H]1C[C@@H]([C@H](O)CC2CC(=O)NC(=O)C2)C(=O)[C@@H](C)C1 [Cycloheximide]
cytotoxicity, experiments greater than threshold, MB-231 (MB-231): +++
cytotoxicity, experiments greater than threshold, MB-468 (MB-468): +++
cytotoxicity, experiments greater than threshold, MCF-7 (MCF-7): +++
cytotoxicity, experiments greater than threshold, HT-29 (HT-29): +++
cytotoxicity, experiments greater than threshold, NCI H460 (NCI H460): +++
cytotoxicity, experiments greater than threshold, OVCAR (OVCAR): +++
cytotoxicity, experiments greater than threshold, PC-3 (PC-3): +++
cytotoxicity at 5 days [1]: 17%
